Results: PubChem BioAssay AID1963435 (Molecular Pharmacology Branch, DTP, NCI, 2024)
pIC50: −log10 of the molar value.

Test system: PANC-1 complex spheroid growth, percent test/control
Experiment: Anticancer human tumor PANC-1 cell line growth inhibition [Asc];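 note: spheroids exposed to agents for 7 days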;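 for viability, T/C: percent viability relative to DMSO vehicle wells taken as 100%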
Conditions: for pIC50: curve of first compound; for viability, T/C: stronger effect = lower value
Method in brief: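 Complex solid-tumor spheroids incorporating human endothelial and mesenchymal stem cells received single agents or combinations over half-log dilution ranges anchored to clinical Cmax.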

[1] = second compound 0.0316 µM, first compound 0.0316 µM
[2] = second compound 0.0316 µM, first compound 0.1 µM
[3] = second compound 0.0316 µM, first compound 0.316 µM
[4] = second compound 0.0316 µM, first compound 1 µM
[5] = second compound 0.1 µM, first compound 0.0316 µM
[6] = second compound 0.1 µM, first compound 0.1 µM
[7] = second compound 0.1 µM, first compound 0.316 µM
[8] = second compound 0.1 µM, first compound 1 µM
[9] = second compound 0.316 µM, first compound 0.0316 µM
[10] = second compound 0.316 µM, first compound 0.1 µM
[11] = second compound 0.316 µM, first compound 0.316 µM
[12] = second compound 0.316 µM, first compound 1 µM
[13] = second compound 1 µM, first compound 0.0316 µM
[14] = second compound 1 µM, first compound 0.1 µM
[15] = second compound 1 µM, first compound 0.316 µM
[16] = second compound 1 µM, first compound 1 µM
[17] = second compound 3.16 µM, first compound 0.0316 µM
[18] = second compound 3.16 µM, first compound 0.1 µM
[19] = second compound 3.16 µM, first compound 0.316 µM
[20] = second compound 3.16 µM, first compound 1 µM
[21] = second compound 10 µM, first compound 0.0316 µM
[22] = second compound 10 µM, first compound 0.1 µM
[23] = second compound 10 µM, first compound 0.316 µM
[24] = second compound 10 µM, first compound 1 µM
[25] = second compound 0.0316 µM, first compound 0.00316 µM
[26] = second compound 0.0316 µM, first compound 0.01 µM
[27] = second compound 0.1 µM, first compound 0.00316 µM
[28] = second compound 0.1 µM, first compound 0.01 µM
[29] = second compound 0.316 µM, first compound 0.00316 µM
[30] = second compound 0.316 µM, first compound 0.01 µM
[31] = second compound 1 µM, first compound 0.00316 µM
[32] = second compound 1 µM, first compound 0.01 µM
[33] = second compound 3.16 µM, first compound 0.00316 µM
[34] = second compound 3.16 µM, first compound 0.01 µM
[35] = second compound 10 µM, first compound 0.00316 µM
[36] = second compound 10 µM, first compound 0.01 µM

C=CC(=O)N1CCN(c2nc(=O)n(-c3c(C)ccnc3C(C)C)c3nc(-c4c(O)cccc4F)c(F)cc23)C(C)C1 (stereo unspecified) + Cc1c(S(C)(=O)=O)c(-c2cc(F)cc(N3CCN(c4ccc(NS(=O)(=O)c5ccc(NC(CCN6CCC(C(=O)OCCCP(=O)(O)O)CC6)CSc6ccccc6)c(S(=O)(=O)C(F)(F)F)c5)cc4)CC3)c2)c(-c2ccc(Cl)cc2)n1C(C)C was tested, and the pIC50 (second compound 0.0316 µM) was under 5.00, the pIC50 (second compound 0.1 µM) was under 5.00 and the pIC50 (second compound 0.316 µM) was under 5.00. The pIC50 (second compound 1 µM) was under 5.00, the pIC50 (second compound 3.16 µM) was under 5.00 and the pIC50 (second compound 10 µM) was under 5.00. The viability, T/C [1] was 98.5%, the viability, T/C [2] was 95.1% and the viability, T/C [3] was 93.7%. It also gave a viability, T/C [4] of 89.7%, a viability, T/C (second compound 0.0316 µM, first compound 3.16 µM) of 98.5% and a viability, T/C (second compound 0.0316 µM, first compound 10 µM) of 88.2%. It also gave a viability, T/C [5] of 99.3%, a viability, T/C [6] of 90.3% and a viability, T/C [7] of 105%. For the same compound, the viability, T/C [8] was 106%, the viability, T/C (second compound 0.1 µM, first compound 3.16 µM) was 88.8% and the viability, T/C (second compound 0.1 µM, first compound 10 µM) was 94.5%. For the same compound, the viability, T/C [9] was 107%, the viability, T/C [10] was 97% and the viability, T/C [11] was 105%. The viability, T/C [12] was 105%, the viability, T/C (second compound 0.316 µM, first compound 3.16 µM) was 98.4% and the viability, T/C (second compound 0.316 µM, first compound 10 µM) was 98%. For the same compound, the viability, T/C [13] was 96.2%, the viability, T/C [14] was 104% and the viability, T/C [15] was 107%. For the same compound, the viability, T/C [16] was 114%, the viability, T/C (second compound 1 µM, first compound 3.16 µM) was 95.6% and the viability, T/C (second compound 1 µM, first compound 10 µM) was 92.6%. It also gave a viability, T/C [17] of 107%, a viability, T/C [18] of 109% and a viability, T/C [19] of 104%. The viability, T/C [20] was 102%, the viability, T/C (second compound 3.16 µM, first compound 3.16 µM) was 109% and the viability, T/C (second compound 3.16 µM, first compound 10 µM) was 92.4%. The viability, T/C [21] was 166%, the viability, T/C [22] was 166% and the viability, T/C [23] was 162%. The viability, T/C [24] was 177%, the viability, T/C (second compound 10 µM, first compound 3.16 µM) was 175% and the viability, T/C (second compound 10 µM, first compound 10 µM) was 135%.
For COc1c(OCCCN2CCOCC2)ccc2c3n(c(=NC(=O)c4cnc(N)nc4)nc12)CCN3 + Cc1c(S(C)(=O)=O)c(-c2cc(F)cc(N3CCN(c4ccc(NS(=O)(=O)c5ccc(NC(CCN6CCC(C(=O)OCCCP(=O)(O)O)CC6)CSc6ccccc6)c(S(=O)(=O)C(F)(F)F)c5)cc4)CC3)c2)c(-c2ccc(Cl)cc2)n1C(C)C, the pIC50 (second compound 0.0316 µM) was 6.27, the pIC50 (second compound 0.1 µM) was 6.38 and the pIC50 (second compound 0.316 µM) was 6.50. The pIC50 (second compound 1 µM) was 6.52, the pIC50 (second compound 3.16 µM) was 6.55 and the pIC50 (second compound 10 µM) was 6.58. The viability, T/C [25] was 103%, the viability, T/C [26] was 98.5% and the viability, T/C [1] was 95.7%. The viability, T/C [2] was 73.7%, the viability, T/C [3] was 69.4% and the viability, T/C [4] was 32.6%. For the same compound, the viability, T/C [27] was 98%, the viability, T/C [28] was 105% and the viability, T/C [5] was 94.7%. It also gave a viability, T/C [6] of 72.8%, a viability, T/C [7] of 60.2% and a viability, T/C [8] of 28.5%. For the same compound, the viability, T/C [29] was 107%, the viability, T/C [30] was 106% and the viability, T/C [9] was 91.1%. It also gave a viability, T/C [10] of 58.2%, a viability, T/C [11] of 59% and a viability, T/C [12] of 25.7%. The viability, T/C [31] was 104%, the viability, T/C [32] was 97.8% and the viability, T/C [13] was 99.8%. The viability, T/C [14] was 67.4%, the viability, T/C [15] was 52.9% and the viability, T/C [16] was 24.1%. It also gave a viability, T/C [33] of 122%, a viability, T/C [34] of 106% and a viability, T/C [17] of 86.8%. For the same compound, the viability, T/C [18] was 65.8%, the viability, T/C [19] was 53.8% and the viability, T/C [20] was 23.9%. For the same compound, the viability, T/C [35] was 171%, the viability, T/C [36] was 198% and the viability, T/C [21] was 131%. The viability, T/C [22] was 78.1%, the viability, T/C [23] was 52.5% and the viability, T/C [24] was 31.7%.
With NC1CCC(NC2CC2c2ccccc2)CC1 (stereo unspecified) + Cc1c(S(C)(=O)=O)c(-c2cc(F)cc(N3CCN(c4ccc(NS(=O)(=O)c5ccc(NC(CCN6CCC(C(=O)OCCCP(=O)(O)O)CC6)CSc6ccccc6)c(S(=O)(=O)C(F)(F)F)c5)cc4)CC3)c2)c(-c2ccc(Cl)cc2)n1C(C)C the pIC50 (second compound 0.0316 µM) was under 7.00, the pIC50 (second compound 0.1 µM) was under 7.00 and the pIC50 (second compound 0.316 µM) was under 7.00. For the same compound, the pIC50 (second compound 1 µM) was under 7.00, the pIC50 (second compound 3.16 µM) was under 7.00 and the pIC50 (second compound 10 µM) was under 7.00. The viability, T/C (second compound 0.0316 µM, first compound 0.000316 µM) was 109%, the viability, T/C (second compound 0.0316 µM, first compound 0.001 µM) was 101% and the viability, T/C [25] was 98.1%. The viability, T/C [26] was 91.4%, the viability, T/C [1] was 95.1% and the viability, T/C [2] was 100%. For the same compound, the viability, T/C (second compound 0.1 µM, first compound 0.000316 µM) was 109%, the viability, T/C (second compound 0.1 µM, first compound 0.001 µM) was 98.3% and the viability, T/C [27] was 101%. It also gave a viability, T/C [28] of 107%, a viability, T/C [5] of 98% and a viability, T/C [6] of 115%. For the same compound, the viability, T/C (second compound 0.316 µM, first compound 0.000316 µM) was 108%, the viability, T/C (second compound 0.316 µM, first compound 0.001 µM) was 97.1% and the viability, T/C [29] was 97.5%. The viability, T/C [30] was 98.5%, the viability, T/C [9] was 110% and the viability, T/C [10] was 105%. For the same compound, the viability, T/C (second compound 1 µM, first compound 0.000316 µM) was 104%, the viability, T/C (second compound 1 µM, first compound 0.001 µM) was 109% and the viability, T/C [31] was 121%. The viability, T/C [32] was 92%, the viability, T/C [13] was 112% and the viability, T/C [14] was 107%. For the same compound, the viability, T/C (second compound 3.16 µM, first compound 0.000316 µM) was 114%, the viability, T/C (second compound 3.16 µM, first compound 0.001 µM) was 110% and the viability, T/C [33] was 102%. It also gave a viability, T/C [34] of 108%, a viability, T/C [17] of 109% and a viability, T/C [18] of 110%. The viability, T/C (second compound 10 µM, first compound 0.000316 µM) was 168%, the viability, T/C (second compound 10 µM, first compound 0.001 µM) was 206% and the viability, T/C [35] was 176%. The viability, T/C [36] was 177%, the viability, T/C [21] was 174% and the viability, T/C [22] was 168%.
